# Data: patent US20250230193A1, “CYCLIC COMPOUND HAVING SELECTIVE KRAS INHIBITORY EFFECT ON HRAS AND NRAS” (CHUGAI SEIYAKU KABUSHIKI KAISHA, priority 2022, published 2025)
# Experiments:
# [1] = target: GDP-bound NRAS wild-type protein (Homo sapiens, UniProt P01111); assay: Binding to NRAS by surface plasmon resonance (SPR), Single Cycle Kinetics; details: SPR; KD ratio class
# [2] = target: GDP-bound HRAS wild-type protein (Homo sapiens, UniProt P01112); assay: Binding to HRAS by surface plasmon resonance (SPR), Single Cycle Kinetics; details: SPR; KD ratio class
# Sequence of GDP-bound HRAS wild-type protein (P01112 whole entry): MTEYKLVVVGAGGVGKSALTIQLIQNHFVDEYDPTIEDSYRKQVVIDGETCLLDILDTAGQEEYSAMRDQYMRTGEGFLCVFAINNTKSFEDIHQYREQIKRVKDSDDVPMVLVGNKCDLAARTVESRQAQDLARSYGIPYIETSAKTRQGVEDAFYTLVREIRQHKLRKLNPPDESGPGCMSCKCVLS
# [3] = system: human lung cancer strain NCI-H441; assay: cells; details: NCI-H441, 96 h, read-out: NCI-H441 IC50 (nM)
# Sequence of GDP-bound NRAS wild-type protein (P01111 whole entry): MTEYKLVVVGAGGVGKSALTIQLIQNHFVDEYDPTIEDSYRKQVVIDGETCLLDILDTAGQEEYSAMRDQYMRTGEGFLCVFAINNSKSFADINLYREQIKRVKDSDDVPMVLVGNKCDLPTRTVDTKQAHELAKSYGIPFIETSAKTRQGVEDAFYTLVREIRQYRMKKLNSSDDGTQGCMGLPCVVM
Compound,IC50 [3],NRAS/KRAS (ratio of KD value for GDP-bound NRAS wild-type protein to KD value for KRAS) [1],HRAS/KRAS (ratio of KD value for GDP-bound HRAS wild-type protein to KD value for KRAS) [2]
CCO[C@@H]1C[C@H]2C(=O)NC3(CCC3)C(=O)N(C)[C@@H](C3CCCC3)C(=O)N(C)[C@H](C(=O)N3CCOCC3)CC(=O)N(C)[C@@H](CC3CC3)C(=O)N[C@@H]([C@@H](C)CC)C(=O)N(C)CC(=O)N(C)[C@H]3C/C=C\CCN(C3=O)[C@@H](Cc3ccc(C(F)(F)F)cc3)C(=O)N(C)CC(=O)N[C@@H](CCc3cc(F)c(C(F)(F)F)c(F)c3)C(=O)N2C1 [PP1283],42.6 nM,AA (a compound having 20 or more is denoted as AA),A (a compound having 10 or more and less than 20 is denoted as A)
CCO[C@@H]1C[C@H]2C(=O)NC3(CCC3)C(=O)N(C)[C@@H](C3CCCC3)C(=O)N(C)[C@H](C(=O)N3CCOCC3)CC(=O)N(C)[C@@H](CC(F)F)C(=O)N[C@@H]([C@@H](C)CC)C(=O)N(C)CC(=O)N(C)[C@H]3C/C=C\CCN(C3=O)[C@@H](Cc3ccc(C(F)(F)F)cc3)C(=O)N(C)CC(=O)N[C@@H](CCc3cc(F)c(C(F)(F)F)c(F)c3)C(=O)N2C1 [PP1285],24.6 nM,AA (a compound having 20 or more is denoted as AA),A (a compound having 10 or more and less than 20 is denoted as A)
CCO[C@@H]1C[C@H]2C(=O)NC3(CCC3)C(=O)N(C)[C@@H](C(CC)CC)C(=O)N(C)[C@H](C(=O)N3CCOCC3)CC(=O)N(C)[C@@H](CC)C(=O)N[C@@H]([C@@H](C)CC)C(=O)N(C)CC(=O)N(C)[C@H]3C/C=C\CCN(C3=O)[C@@H](Cc3ccc(C(F)(F)F)cc3)C(=O)N(C)CC(=O)N[C@@H](CCc3cc(F)c(C(F)(F)F)c(F)c3)C(=O)N2C1 [PP1286],58.8 nM,AA (a compound having 20 or more is denoted as AA),A (a compound having 10 or more and less than 20 is denoted as A)
CCO[C@@H]1C[C@H]2C(=O)NC3(CCC3)C(=O)N(C)[C@@H](C(CC)CC)C(=O)N(C)[C@H](C(=O)N3CCOCC3)CC(=O)N(C)[C@@H](CC(C)C)C(=O)N[C@@H]([C@@H](C)CC)C(=O)N(C)CC(=O)N(C)[C@H]3C/C=C\CCN(C3=O)[C@@H](Cc3ccc(C(F)(F)F)cc3)C(=O)N(C)CC(=O)N[C@@H](CCc3cc(F)c(C(F)(F)F)c(F)c3)C(=O)N2C1 [PP1287],49.7 nM,AA (a compound having 20 or more is denoted as AA),A (a compound having 10 or more and less than 20 is denoted as A)
CCO[C@@H]1C[C@H]2C(=O)NC3(CCC3)C(=O)N(C)[C@@H](C3CCCC3)C(=O)N(C)[C@H](C(=O)N3CCCCC3)CC(=O)N(C)[C@@H](CC)C(=O)N[C@@H]([C@@H](C)CC)C(=O)N(C)CC(=O)N(C)[C@H]3C/C=C\CCN(C3=O)[C@@H](Cc3ccc(C(F)(F)F)cc3)C(=O)N(C)CC(=O)N[C@@H](CCc3cc(F)c(C(F)(F)F)c(F)c3)C(=O)N2C1 [PP1289],34.7 nM,AA (a compound having 20 or more is denoted as AA),A (a compound having 10 or more and less than 20 is denoted as A)
CCO[C@@H]1C[C@H]2C(=O)NC3(CCC3)C(=O)N(C)[C@@H](C3CCCC3)C(=O)N(C)[C@H](C(=O)N3CCCCC3)CC(=O)N(C)[C@@H](CC(C)C)C(=O)N[C@@H]([C@@H](C)CC)C(=O)N(C)CC(=O)N(C)[C@H]3C/C=C\CCN(C3=O)[C@@H](Cc3ccc(C(F)(F)F)cc3)C(=O)N(C)CC(=O)N[C@@H](CCc3cc(F)c(C(F)(F)F)c(F)c3)C(=O)N2C1 [PP1290],15.4 nM,AA (a compound having 20 or more is denoted as AA),A (a compound having 10 or more and less than 20 is denoted as A)
CCO[C@@H]1C[C@H]2C(=O)NC3(CCC3)C(=O)N(C)[C@@H](C3CCCC3)C(=O)N(C)[C@H](C(=O)N3CCCCC3)CC(=O)N(C)[C@@H](CC3CC3)C(=O)N[C@@H]([C@@H](C)CC)C(=O)N(C)CC(=O)N(C)[C@H]3C/C=C\CCN(C3=O)[C@@H](Cc3ccc(C(F)(F)F)cc3)C(=O)N(C)CC(=O)N[C@@H](CCc3cc(F)c(C(F)(F)F)c(F)c3)C(=O)N2C1 [PP1291],16.7 nM,A (a compound having 10 or more and less than 20 is denoted as A),A (a compound having 10 or more and less than 20 is denoted as A)
CCO[C@@H]1C[C@H]2C(=O)NC3(CCC3)C(=O)N(C)[C@@H](C3CCCC3)C(=O)N(C)[C@H](C(=O)N3CCCCC3)CC(=O)N(C)[C@@H](C)C(=O)N[C@@H]([C@@H](C)CC)C(=O)N(C)CC(=O)N(C)[C@H]3C/C=C\CCN(C3=O)[C@@H](Cc3ccc(C(F)(F)F)cc3)C(=O)N(C)CC(=O)N[C@@H](CCc3cc(F)c(C(F)(F)F)c(F)c3)C(=O)N2C1 [PP1292],24.6 nM,A (a compound having 10 or more and less than 20 is denoted as A),A (a compound having 10 or more and less than 20 is denoted as A)

# Continued, in another order:
IC50 [3],Compound,NRAS/KRAS (ratio of KD value for GDP-bound NRAS wild-type protein to KD value for KRAS) [1],HRAS/KRAS (ratio of KD value for GDP-bound HRAS wild-type protein to KD value for KRAS) [2]
53.5 nM,CCO[C@@H]1C[C@H]2C(=O)NC3(CCC3)C(=O)N(C)[C@@H](C3CCCC3)C(=O)N(C)[C@H](C(=O)N(C)C)CC(=O)N(C)[C@@H](CC)C(=O)N[C@@H](C(C)C)C(=O)N(C)CC(=O)N(C)[C@H]3C/C=C\CCN(C3=O)[C@@H](Cc3ccc(C(F)(F)F)cc3)C(=O)N(C)CC(=O)N[C@@H](CCc3cc(F)c(C(F)(F)F)c(F)c3)C(=O)N2C1 [PP1270],A (a compound having 10 or more and less than 20 is denoted as A),B (a compound having 3 or more and less than 10 is denoted as B)
79.8 nM,CCO[C@@H]1C[C@H]2C(=O)NC3(CCCCC3)C(=O)N(C)[C@@H](C3CCCC3)C(=O)N(C)[C@H](C(=O)N(C)C)CC(=O)N(C)[C@@H](CC)C(=O)N[C@@H]([C@@H](C)CC)C(=O)N(C)CC(=O)N(C)[C@H]3C/C=C\CCN(C3=O)[C@@H](Cc3ccc(C(F)(F)F)cc3)C(=O)N(C)CC(=O)N[C@@H](CCc3cc(F)c(C(F)(F)F)c(F)c3)C(=O)N2C1 [PP1277],A (a compound having 10 or more and less than 20 is denoted as A),A (a compound having 10 or more and less than 20 is denoted as A)
72.6 nM,CCO[C@@H]1C[C@H]2C(=O)NC3(CCOCC3)C(=O)N(C)[C@@H](C3CCCC3)C(=O)N(C)[C@H](C(=O)N(C)C)CC(=O)N(C)[C@@H](CC)C(=O)N[C@@H]([C@@H](C)CC)C(=O)N(C)CC(=O)N(C)[C@H]3C/C=C\CCN(C3=O)[C@@H](Cc3ccc(C(F)(F)F)cc3)C(=O)N(C)CC(=O)N[C@@H](CCc3cc(F)c(C(F)(F)F)c(F)c3)C(=O)N2C1 [PP1279],A (a compound having 10 or more and less than 20 is denoted as A),A (a compound having 10 or more and less than 20 is denoted as A)
34.4 nM,CCO[C@@H]1C[C@H]2C(=O)NC(C)(C)C(=O)N(C)[C@@H](C3CCCC3)C(=O)N(C)[C@H](C(=O)N(C)C)CC(=O)N(C)[C@@H](CC)C(=O)N[C@@H]([C@@H](C)CC)C(=O)N(C)CC(=O)N(C)[C@H]3C/C=C\CCN(C3=O)[C@@H](Cc3ccc(C(F)(F)F)cc3)C(=O)N(C)CC(=O)N[C@@H](CCc3cc(F)c(C(F)(F)F)c(F)c3)C(=O)N2C1 [PP1280],A (a compound having 10 or more and less than 20 is denoted as A),A (a compound having 10 or more and less than 20 is denoted as A)
12.3 nM,CCO[C@@H]1C[C@H]2C(=O)NC3(CCC3)C(=O)N(C)[C@@H](C3CCCC3)C(=O)N(C)[C@H](C(=O)N3CCOCC3)CC(=O)N(C)[C@@H](CC(C)C)C(=O)N[C@@H]([C@@H](C)CC)C(=O)N(C)CC(=O)N(C)[C@H]3C/C=C\CCN(C3=O)[C@@H](Cc3ccc(C(F)(F)F)cc3)C(=O)N(C)CC(=O)N[C@@H](CCc3cc(F)c(C(F)(F)F)c(F)c3)C(=O)N2C1 [PP1282],A (a compound having 10 or more and less than 20 is denoted as A),A (a compound having 10 or more and less than 20 is denoted as A)
54.8 nM,CCO[C@@H]1C[C@H]2C(=O)NC3(CCC3)C(=O)N(C)[C@@H](C3CCCC3)C(=O)N(C)[C@H](C(=O)N3CCOCC3)CC(=O)N(C)[C@@H](C)C(=O)N[C@@H]([C@@H](C)CC)C(=O)N(C)CC(=O)N(C)[C@H]3C/C=C\CCN(C3=O)[C@@H](Cc3ccc(C(F)(F)F)cc3)C(=O)N(C)CC(=O)N[C@@H](CCc3cc(F)c(C(F)(F)F)c(F)c3)C(=O)N2C1 [PP1284],AA (a compound having 20 or more is denoted as AA),A (a compound having 10 or more and less than 20 is denoted as A)
22.2 nM,CCC[C@H]1C(=O)N[C@@H]([C@@H](C)CC)C(=O)N(C)CC(=O)N(C)[C@H]2C/C=C\CCN(C2=O)[C@@H](Cc2ccc(C(F)(F)F)cc2)C(=O)N(C)CC(=O)N[C@@H](CCc2cc(F)c(C(F)(F)F)c(F)c2)C(=O)N2C[C@H](OCC)C[C@H]2C(=O)NC2(CCC2)C(=O)N(C)[C@@H](C2CCCC2)C(=O)N(C)[C@H](C(=O)N2CCOCC2)CC(=O)N1C [PP1288],AA (a compound having 20 or more is denoted as AA),A (a compound having 10 or more and less than 20 is denoted as A)
